Assays:
diet-induced obese mice = assay: Feeding study in diet-induced obese mice (food intake, body weight); format: in vivo; conditions: for % Food intake (FI) reductions Day 1: Day 1, based on vehicle responses
Text: NMUR1 knockout (Nmur1−/−) mice were generated using standard homologous recombination techniques. Nmur1 mice were subsequently transferred to Taconic Farms where they were either maintained on a 75% C57BL/6×25% 129S6/SvEv mixed genetic background or backcrossed six generations to C57BL/6. NMUR2 knockout (Nmur2−/−) mice were licensed from Deltagen Inc., San Mateo, Calif. and subsequently transferred to Taconic Farms where they were either maintained on a 75% C57BL/6×25% 129/OlaHsd mixed genetic background or backcrossed for seven generations to C57BL/6. NMUR1 and NMUR2 double knockout (Nmur1&2−/−) mice were generated by crossing N6 Nmur1−/− mice to N7 Nmur2−/− mice. Mice were individually housed in Tecniplast cages in a conventional SPF facility. Mice were initially maintained on a regular chow diet and then early in their life were switched to a high fat diet (D12492: 60% kcal from fat; Research Diets, Inc., New Brunswick, N.J.) with ad libitum access to water in a 12-hour light/12-hour dark cycle.
Ad libitum fed male diet-induced obese mice were weighed and dosed either i.p. or s.c. about 30 minutes prior to the onset of the dark phase of the light cycle and provided with a preweighed aliquot of high fat diet D12492 which was then weighed 2 hours and 18 hours (day 1), 42 hours (day 2), 66 hours (day 3), and 90 hours (day 4) after the onset of the initial dark phase. Mice were weighed at the 18, 42, 66 and 90 hour time points.

Mouse NMUR1-CTG = target: T1, Mouse NMUR1-CTG (Mus musculus, UniProt O55040); assay: 125I-hNMU-25 binding assay, mouse R1-CTG; parameters: expressed in transfected cells; host or cells: HEK-293 FLP-In cells (pcDNA5); conditions: binding
T1 sequence (O55040 1-428): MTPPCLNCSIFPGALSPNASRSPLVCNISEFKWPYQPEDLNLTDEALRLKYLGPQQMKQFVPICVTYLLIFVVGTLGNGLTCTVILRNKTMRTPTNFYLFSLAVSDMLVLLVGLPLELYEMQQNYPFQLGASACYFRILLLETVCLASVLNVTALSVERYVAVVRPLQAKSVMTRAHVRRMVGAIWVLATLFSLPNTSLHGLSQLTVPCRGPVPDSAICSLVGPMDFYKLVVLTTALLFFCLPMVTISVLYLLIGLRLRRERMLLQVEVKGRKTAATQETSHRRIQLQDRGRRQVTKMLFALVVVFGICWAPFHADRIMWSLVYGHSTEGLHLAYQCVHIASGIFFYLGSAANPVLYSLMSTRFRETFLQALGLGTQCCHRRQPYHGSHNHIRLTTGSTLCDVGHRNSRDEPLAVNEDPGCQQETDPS
Protocol: (§1) Confluent cell monolayers expressing NMU receptors (the HEK cells described above) were harvested with phosphate buffered saline, collected by centrifugation, and resuspended in membrane buffer (50 mM TrisCl pH 7.4, 5 mM MgCl2, 1× Protease Inhibitor Cocktail, 10 μM phosphoramidon). After the cell pellet was homogenized, the solution was centrifuged at 18,000 rpm for 20 minutes at 4° C. The pellet was resuspended in membrane buffer to yield a final concentration of 0.5-5 μg/μL of membrane and stored at −80° C.
(§2) Experiments were performed in assay buffer (25 mM TrisCl, pH 7.4, 10 mM MgCl2, 2 mM EDTA, 1× Protease Inhibitor Cocktail, 100 μg/mL Bacitricin, 10 μM phosphoramidon) in 200 μL volumes in a 96-well format using 2-5 μg of membrane and 0.1 nM ^125I-hNMU-25 (about 12,000 cpm/well). For non-specific binding, 1 μM hNMU-25 was added. About 5 μL of peptides were added to measure antagonist activity, and the entire reaction was incubated at room temperature with shaking for 80 minutes. The reaction was terminated by rapid filtration through 0.3% poly-ethylenimine presoaked Millipore 96-well filter plates and washed with ice-cold buffer (5 mM TrisCl pH 7.4, 10 mM MgCl2, 2.5 mM EDTA, 0.04% Triton X-100). Plates were air-dried overnight at room temperature and recovered radioactivity was determined by standard scintillation counting. IC50 values were determined using GraphPad Prism software.
(§3) Concentration-response curves and radioligand-binding data were fitted using Prism (GraphPad Software). Results are summarized below in Tables 8 and 9.

rat NMUR1-ATG = target: T2, rat NMUR1-ATG (Rattus norvegicus, UniProt Q9JJI5); assay: 125I-hNMU-25 binding assay, rat R1-ATG; parameters: expressed in transfected cells; host or cells: HEK-293 FLP-In cells (pcDNA5); conditions: binding
T2 sequence (Q9JJI5 1-425): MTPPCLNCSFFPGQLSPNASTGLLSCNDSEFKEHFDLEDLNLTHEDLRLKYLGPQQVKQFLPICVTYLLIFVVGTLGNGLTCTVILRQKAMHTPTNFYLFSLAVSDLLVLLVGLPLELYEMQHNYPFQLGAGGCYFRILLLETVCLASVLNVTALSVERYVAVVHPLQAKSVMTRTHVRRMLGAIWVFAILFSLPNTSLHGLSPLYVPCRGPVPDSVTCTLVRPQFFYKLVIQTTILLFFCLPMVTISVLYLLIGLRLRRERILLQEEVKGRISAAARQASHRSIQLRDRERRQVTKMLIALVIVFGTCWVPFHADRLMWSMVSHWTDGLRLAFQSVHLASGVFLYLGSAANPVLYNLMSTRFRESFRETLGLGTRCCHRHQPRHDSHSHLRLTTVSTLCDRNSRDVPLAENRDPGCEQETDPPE
Protocol: as §1, §2, §3

| Substance | Body weight (BW) change (in grams) {relative to vehicle} Day 1 (diet-induced obese mice; 10 mg/kg) [grams] | % Food intake (FI) reductions Day 1 (diet-induced obese mice; 10 mg/kg) [%] | Body weight (BW) change (in grams) {relative to vehicle} Day 1 (diet-induced obese mice; 3 mg/kg) [grams] | % Food intake (FI) reductions Day 1 (diet-induced obese mice; 3 mg/kg) [%] | also measured |
| --- | --- | --- | --- | --- | --- |
| Ac-C2FRVDEEFQSPFASQSRGYFLFRPRN-CONH2 [NMU9] ({Ac-C(PEG 40 kDa)}-FRVDEEFQSPFASQSRGYFLFRPRN-NH2) [C2 = Cys(PEG)240 kDa from Nektar (mPEG2-MAL-40 k)] | −2.0 | 56 |  |  | extension of serum half-life by PEGylation (diet-induced obese mice): three days; Body weight (BW) change (in grams) {relative to vehicle} Day 2 (diet-induced obese mice; 10 mg/kg, Day 2): −1.2 grams; % Food intake (FI) reductions Day 2 (diet-induced obese mice; 10 mg/kg, Day 2, based on vehicle responses): 57%; Body weight (BW) change (in grams) {relative to vehicle} Day 3 (diet-induced obese mice; 10 mg/kg, Day 3): −0.2 grams; % Food intake (FI) reductions Day 3 (diet-induced obese mice; 10 mg/kg, Day 3, based on vehicle responses): 18% |
| Ac-FRVDEEFQSPFASQSRGYFLFRPRN-NH2 [NMU2] |  |  | −0.7 | 25 |  |
| Ac-FRVDEEFQSPFASQSRPYFLFRPRN-NH2 [NMU5] |  |  | −0.5 | 26 |  |
| H-FRVDEEFQSPFASQSRGYFLFRPRN-NH2 [hNMU-25, reference compound] | −0.6 | 21 |  |  | IC50 (Mouse NMUR1-CTG): 150 pM; IC50 (rat NMUR1-ATG): 1200 pM |
| H-FRVDEEFQSPFASQSRPYFLFRPRN-NH2 [NMU4] |  |  | −0.3 | 12 |  |
